# Values of other authors as cited in patent US7812020B2, “Substituted pyridine derivatives” (priority 2005, dated 2010).
# What was measured:
# rats and mice = settings: oral and intraperitoneal administration; electrically induced seizures, pentylenetetrazole, picrotoxin, NMDA, DBA/2 mouse
# amygdala kindling model = settings: complex partial seizures
# epileptic patients = settings: clinical trials
# [1] = tested on: K(+) current in neuronal cells
# [2] = tested on: animal models of neuropathic pain; settings: in vivo
# rat [3] = settings: following kainic acid-induced status epilepticus in the rat
# rat [4] = tested on: rat
# [5] = tested on: animal models of anxiety-like behaviour; settings: in vivo
compound,measurement,setting,value
"CCOC(=O)Nc1ccc(NCc2ccc(F)cc2)cc1N [Retigabine, N-(2-amino-4-(4-fluorobenzylamino)-phenyl)carbamic acid ethyl ester]",anticonvulsant activity,rats and mice,active
same,activity in amygdala kindling model,amygdala kindling model,active
same,incidence of seizures,epileptic patients,effectiveness in reducing the incidence of seizures
same,effect on K(+) current,[1],activate a K(+) current
same,effect in neuropathic pain models,[2],beneficial
same,limbic neurodegeneration and markers of apoptosis,rat [3],prevent limbic neurodegeneration and the expression of markers of apoptosis
same,progression of hippocampal kindling,rat [4],delay the progression of hippocampal kindling
same,activity in anxiety-like behaviour models,[5],active
